# Experimental data published in patent publication US20250268971A1, “SAFFRON AS ANTI-INFLAMMATORY AGENT IN TREATING INFLAMMATORY BOWEL DISEASE” (HOWARD UNIVERSITY, priority 2020, published 2025).
# Test system: human PBMCs T cells
# Assay: Human PBMCs T cells pro-inflammatory cytokine secretion (flow cytometry)
# Type: cell-based
# Method: A 48 well plate was coated with human anti-CD3 antibody (1 μg/ml) overnight. After washing with 1×PBS, plates were coated with human PBMCs (0.5×10^6 cells/well), human anti-CD28 (1 μg/ml), β-mercaptoethanol (1 μg/ml), different concentrations of Saffron aqueous extract (250 μg/ml, 500 μg/ml) and other constituents of saffron, Safranal (500 μM, 1 mM) (Sigma Aldrich, USA). The human PBMCS of 0.5×10^6 cells/well PBMCs were seeded in 48 well microplates in RPMI-1640 (Sigma, USA) supplemented with 10% fetal bovine serum and 1% penicillin/streptomycin at 37° C. and in 5% CO2) (day 0). At day 3, cells were stimulated with phorbol myristate acetate (PMA; 50 ng/ml)+ Ionomycin (1 μg/ml)+ Brefeldin A (1X) for 4 hrs. and cells were harvested and stained for flow cytometry. The human specific antibodies for T cells (dye; Zombi Aqua, CD45 PerCP 5.5, CD3 BV421, CD4 PETR, CD127-PECy7, CD25 BV605, CD8a AF488 and pro-inflammatory cytokines, like TNF-α AF700, IFNg APC, IL4 PE) were used to stain the PBMC cells.
# In CD8+ T cells, TNFα+ expression was reduced in presence of SFE dose 500 μg/ml and safranal doses (500 μM, 1 mM) only, while IFNg+ expression was reduced in all tested doses of SFE and safranal in comparison to stimulated human PBMCs treated with media.
compound,measurement,setting,value
"CC1=C(C=O)C(C)(C)CC=C1 [safranal, Safranal]",TNFα+ expression in CD8+ T cells,"SFE 500 μg/ml only, safranal 500 μM, 1 mM, vs media treated stimulated PBMC",reduced
same,TNFα+ in CD4+ T cells,"SFE 250 and 500 μg/ml, safranal 500 μM, 1 mM, anti-CD3/CD28, PMA+ionomycin stimulated, vs media",inhibitory response
same,IFNg+ in CD4+ T cells,"SFE 250 and 500 μg/ml, safranal 500 μM, 1 mM, vs media treated stimulated PBMC",inhibitory response
same,IFNg+ expression in CD8+ T cells,"all tested doses (SFE 250, 500 μg/ml; safranal 500 μM, 1 mM), vs media",reduced
